Assay results taken from patent publication US20140377259A1, “METHODS FOR INHIBITING HIV-1 REPLICATION INVOLVING THE ADMINISTRATION OF AN ANTI-CCR5 RECEPTOR MONOCLONAL ANTIBODY AND SMALL MOLECULE CCR5 RECEPTOR ANTAGONIST” (CytoDyn Inc., priority 2005, published 2014).
Where two headings read alike, the source gives them in different places.

Tests used:
[1] = system: AD101- and SCH-D-resistant HIV-1 variants; settings: primary CD4+ T-cells; cited from earlier work
CCR5 [2] = biological target: T1, CCR5 (Homo sapiens, UniProt P51681); test: Competition binding: inhibition of PRO 140-PE binding to CEM.NKR-CCR5 cells (flow cytometry); settings: for Inhibition of PRO 140-PE binding: unlabeled inhibitor pre-incubated 30 min, 5 nM PRO 140-PE
T1 construct: host or cells: CEM.NKR (human T cell leukemia line), transduced with CCR5
Experimental: Inhibition was assessed on the basis of both MFI (A) and percent cells gated (B).
Azide was added to block CCR5 internalization during the assay.

[3] = system: reporter virus pseudotyped with HIV-1JR-FL envelope; type: cell-based
Experimental: (§1) Cultures were incubated for 72 h at 37° C. in DMEM containing 10% fetal bovine serum, 1 mg/mL puromycin, 0.3 mg/mL geneticin, antibiotics, and 0.5% DMSO. Luciferase activity (relative light units or RLU) was measured using BrightGlo reagent (Promega, Madison, Wis.) according to the manufacturer's instructions. Percent inhibition was calculated as: (1−RLU in the presence of inhibitor/RLU in the absence of inhibitor)×100.
(§2) Experimental design and data analysis were based on the combination index (CI) method (Chou et al. 1991; Chou et al. 1984). Compounds were tested individually and in combination at a fixed molar ratio over a range of serial dilutions. […] The mutually exclusive CI formula was used for combinations of CCR5 inhibitors, while the mutually non-exclusive formula was utilized for combinations of inhibitors to distinct targets (Chou et al. 1991). Each test was conducted 4-12 times. Synergy, additivity and antagonism are indicated by CI<1, CI=1 and CI>1, respectively.

[4] = system: reporter virus pseudotyped with HIV-1SF162 envelope; type: cell-based; settings: 2nd inhibitor PRO 140, equimolar, 1:10 PRO 140 to zidovudine or nevirapine
Experimental: as §1, §2

[5] = system: HIV-1 Env-mediated fusion (HeLa-EnvJRFL with CEM NKR-CCR5 cells); test: HIV-1 RET cell-cell fusion assay (Part II, combination testing); type: cell-based; settings: Drug 1 SCH-D with Drug 2 TAK-779, molar ratio 1:1
Experimental: Briefly, fluorescein octadecyl ester (F18; Molecular Probes, Eugene, Oreg.; 5 mg/ml in ethanol), was diluted 1:800 in DMEM labeling medium (DMEM; Invitrogen, Carlsbad, Calif.) with 10% fetal bovine serum (FBS; HyClone, Logan, Utah) and adjusted to an A506 of 0.34±10%. Octadecyl rhodamine B chloride (R18; Molecular Probes; 10 mg/ml in ethanol) was diluted 1:2050 in labeling medium and adjusted to an A565 of 0.52±10%. Both dyes were further diluted 2-fold by addition to cells in T75-cm^2 flasks. HeLa-EnvJRFL and CEM NKR-CCR5 cells were incubated overnight in F18- and R18-containing culture medium, respectively. […] The centrifugation/wash step was repeated twice, after which the cells were counted and concentrations adjusted to 1.5×10^6 cells/ml. […] The plates were then read on a fluorescence plate reader (Victor^2, Perkin Elmer, Boston, Mass.) using the excitation/emission filter combinations shown in Table 6.
The “% RET” was calculated according to the following formula after subtraction of background (blank) readings: […]
The “% Inhibition” was calculated according to the following formula: […]
Fifty percent inhibition (IC50) values were determined by fitting the inhibition data with a non-linear, four-parameter, variable slope equation (GraphPad Prism, 4.02; GraphPad Software, San Diego, Calif.). […]

CCR5 [6] = biological target: T1, CCR5; test: Competition binding: inhibition of 3H-UK-427,857 binding to CEM.NKR-CCR5 cells
Description: Cells were washed and then analyzed for radioactivity by scintillation counting.
The cells were washed in PBSA and lysed with 0.5N HCl prior to scintillation counting using a Wallac 1410 instrument.

[7] = in vivo; cited from earlier work
HIV-1 = settings: cited from earlier work
[8] = single administration of solution; cited from earlier work
[9] = system: HIV-1JR-FL envelope-mediated membrane fusion; type: cell-based
Description: HIV-1 envelope-mediated membrane fusion was examined using a fluorescence resonance energy transfer (RET) assay (Litwin et al. 1996) with modifications. Briefly, HeLa cells that stably express HIV-1JR-FL gp120/gp41 (Litwin et al. 1996) and CEM.NKR-CCR5 cells (NIH AIDS Research and Reference Reagent Program, (Spenlehauer et al. 2001; Trkola et al. 1999)) were labeled separately overnight with fluorescein octadecyl ester (F18; Molecular Probes, Eugene, Oreg.) and rhodamine octadecyl ester (R18; Molecular Probes), respectively. […] The CD4 mAb Leu3a was used as a control inhibitor, and percent inhibition was calculated as: (RET in the absence of inhibitor−RET in the presence of inhibitor)/(RET in the absence of inhibitor−RET in the presence of Leu3a)×100.
as §2
Twenty-two synergy comparisons (11 compounds×2 CI values) were made based on data generated in the membrane fusion assay, resulting in a corrected P value of 0.0023.

CCR5 lymphocytes = type: in vivo, human
Experimental: At the indicated times post-treatment, blood was collected and analyzed for CCR5 lymphocyte levels. The group mean values and standard deviations are indicated.
Whole blood specimens were combined separately with the indicated phycoerythrin-labeled anti-CCR5 antibodies or with appropriate isotype-control antibodies. Erythocytes were lysed and leukocytes were stabilized using the ImmunoPrep Reagent System (Beckman Coulter), and the cells were analyzed on a TQ Prep™ flow cytometry workstation (Beckman Coulter). Data were expressed as the percent of CCR5 cells relative to all cells gated in the analysis.
For up to 60 days post-treatment, at the times indicated in FIG. 6, blood was collected and analyzed for CCR5 lymphocyte levels.

[10] = parameters: species or system human; settings: in vivo
Experimental: At the indicated times post-treatment, serum was collected, cryopreserved, and analyzed for PRO 140 levels. Data for individual patients are indicated.
Sera were diluted as appropriate and combined with L1.2-CCR5 cells, which are mouse pre-B lymphoma cells engineered to stably express human CCR5. […] Following incubation with test samples, cells were washed and combined with a FITC-labeled sheep antibody against human IgG4 (The Binding Site Limited, Cat. #AF009). Cells were washed again and analyzed by flow cytometry.
Serum was collected post-treatment, cryopreserved, and analyzed for PRO 140 levels. Peak serum concentrations ranged to […] at 0.1 mg/kg and […] at 0.5 mg/kg.

CCR5 [11] = biological target: T1, CCR5; test: RANTES-induced calcium mobilization in L1.2-CCR5 cells; type: cell-based; settings: FIG. 4
Description: Similar results were obtained for […] and MIP-1β.

HIV-1JR-CSF = test: hu-PBL-SCID mouse model of HIV-1 infection; type: in vivo, SCID mice; settings: multiple doses after steady state viral levels
Experimental: SCID mice were reconstituted with normal human peripheral blood mononuclear cells and infected 2 weeks later with HIV-1JR-CSF. Multiple doses of PRO 140 were administered following attainment of steady state viral levels. Plasma viral loads pre- and post-injection are indicated.

[12] = envelope JRFL, 2nd inhibitor PRO 140, equimolar, 1:10 PRO 140 to zidovudine or nevirapine
[13] = labelled 1st inhibitor with 2nd inhibitor PRO 140, equimolar
[14] = labelled 1st inhibitor with 2nd inhibitor UK-427,857, equimolar

T1 sequence (P51681 whole entry): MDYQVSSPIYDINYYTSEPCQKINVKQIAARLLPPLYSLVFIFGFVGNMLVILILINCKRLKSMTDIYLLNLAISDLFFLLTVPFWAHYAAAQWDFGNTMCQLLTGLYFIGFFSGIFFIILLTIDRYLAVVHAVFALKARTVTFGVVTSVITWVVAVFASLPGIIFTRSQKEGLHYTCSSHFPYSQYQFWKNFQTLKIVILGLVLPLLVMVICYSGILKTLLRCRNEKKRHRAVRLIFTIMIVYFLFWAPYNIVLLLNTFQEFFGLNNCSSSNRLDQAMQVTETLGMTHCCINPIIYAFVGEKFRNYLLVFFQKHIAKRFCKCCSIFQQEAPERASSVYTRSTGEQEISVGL

CCO/N=C(\c1ccc(Br)cc1)C1CCN(C2(C)CCN(C(=O)c3c(C)cc[n+]([O-])c3C)CC2)CC1 [SCH-C]
Sensitivity of AD101-resistant HIV-1 variant [1]: resistant

COC[C@@H](c1ccc(C(F)(F)F)cc1)N1CCN(C2(C)CCN(C(=O)c3c(C)ncnc3C)CC2)C[C@@H]1C [SCH-D, 1-[(4,6-dimethyl-5pyrimidinyl)carbonyl]-4 [4-[2-methoxy-1(R)-4-(trifluoromethyl)phenyl]ethyl-3 (S)-methyl-1-piperazinyl]-4-methylpiperidine]
Effect on percent of cells gated for positive binding of PRO 140-PE (CCR5 [2]; FIG. 16B): little impact | Inhibition of PRO 140-PE binding (CCR5 [2]): modest levels of inhibition | CI50 [3, 12]: 0.47 ± 0.15 | CI90 [3, 12]: 0.18 ± 0.04 | Sensitivity of SCH-D-resistant HIV-1 variant [1]: resistant | CI50 [4]: 0.60 ± 0.17 | CI90 [4]: 0.28 ± 0.11 | Mean DR (Drug 2) [5]: 4.31 ± 1.82 | Displacement of pre-bound 3H-UK-427,857 by unlabeled compound (CCR5 [6]): wasn't displaced

CCCCOCCOc1ccc(-c2ccc3c(c2)/C=C(/C(=O)Nc2ccc(OCc4cncn4CCC)cc2)CCCN3CC(C)C)cc1 [TAK-652]
Oral bioavailability [7]: orally bioavailable | Anti-HIV-1 activity in vitro (HIV-1): nanomolar range | Safety and tolerability [8]: safe and well tolerated

Cc1ccc(-c2ccc3c(c2)C=C(C(=O)Nc2ccc(C[N+](C)(C)C4CCOCC4)cc2)CCC3)cc1.[Cl-] [TAK-779]
Inhibition of HIV-1 pseudovirus entry ([3]; compound alone, data not shown): Neither TAK-779 nor RANTES mediated consistent, high-level inhibition | Oral bioavailability [7]: poor oral bioavailability

RANTES: CC-chemokine that serves as a natural ligand for CCR5
CI50 [9, 13]: 0.59 ± 0.08 | CI90 [9, 13]: 0.43 ± 0.05 | CI50 [9, 14]: 0.48 ± 0.03 | CI90 [9, 14]: 0.18 ± 0.01

B1: PRO 140: humanized IgG4,κ anti-CCR5 monoclonal antibody, humanized version of murine mAb PA14 (antibody, chains of the INN, looked up, V domains shown)
VH: EVQLVESGGGLVKPGGSLRLSCAASGYTFSNYWIGWVRQAPGKGLEWIGDIYPGGNYIRNNEKFKDKTTLSADTSKNTAYLQMNSLKTEDTAVYYCGSSFGSNYVFAWFTYWGQGTLVTVSS
VL: DIVMTQSPLSLPVTPGEPASISCRSSQRLLSSYGHTYLHWYLQKPGQSPQLLIYEVSNRFSGVPDRFSGSGSGTDFTLKISRVEAEDVGVYYCSQSTHVPLTFGQGTKVEIK
Inhibition of PRO 140-PE binding (CCR5 [2]): Complete inhibition | Overall number of CCR5 lymphocytes (CTC5 binding) (CCR5 lymphocytes; in vivo, iv, 2 mg/kg): no decrease | Binding of antibody 2D7 (CCR5 lymphocytes not coated with PRO 140) (CCR5 lymphocytes; single 2 mg/kg intravenous infusion): significantly decreased | Dose dependence of serum concentrations [10]: increased proportionally with dose level | Effect on RANTES-induced calcium mobilization versus HIV-1JR-FL replication in PBMC (CCR5 [11]): blocks HIV-1 but not chemokine signaling | Displacement of pre-bound 3H-UK-427,857 by unlabeled compound (CCR5 [6]; cells pre-incubated with 2 nM 3H-UK-427,857, unlabeled compound 30 min): wasn't displaced | Control of viral replication (plasma viral load) (HIV-1JR-CSF): prolonged control of viral replication
